Assay [1] concerns the target T1, human calcitonin receptor (hCTR) (Homo sapiens, UniProt P30988).
T1 construct: host or cells: BHK (Baby Hamster Kidney), Hollex-1 cell line
T1 sequence (P30988 25-474): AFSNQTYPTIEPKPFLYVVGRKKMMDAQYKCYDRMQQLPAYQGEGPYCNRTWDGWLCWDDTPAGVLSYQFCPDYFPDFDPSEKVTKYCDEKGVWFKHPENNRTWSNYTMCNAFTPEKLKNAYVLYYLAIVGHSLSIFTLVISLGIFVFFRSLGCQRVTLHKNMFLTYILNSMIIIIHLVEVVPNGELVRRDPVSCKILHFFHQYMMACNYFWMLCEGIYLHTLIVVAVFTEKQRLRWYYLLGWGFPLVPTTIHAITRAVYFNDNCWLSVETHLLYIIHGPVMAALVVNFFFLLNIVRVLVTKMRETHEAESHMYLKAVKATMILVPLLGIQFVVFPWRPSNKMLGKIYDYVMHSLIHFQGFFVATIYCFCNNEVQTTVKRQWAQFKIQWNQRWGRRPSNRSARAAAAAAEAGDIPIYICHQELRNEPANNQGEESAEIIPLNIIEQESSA
Kind of assay: Human calcitonin receptor (hCTR) in vitro potency assay, CRE-luciferase reporter in BHK cells. The note with it: BHK hCTR/CRE-Luc cells, 3 hours incubation, assay buffer with 1% ovalbumin; read-out: hCalcR potency, EC50. In kind it is cell-based. The essentials: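 Luciferase signal from a CRE reporter served as the cAMP read-out after 3 h, 37 °C exposure to compound. Cells were stably transfected BHK expressing hCTR, and the buffer was phenol-red-free DMEM with 10 mM HEPES and 1% ovalbumin. Compounds were tested as 7-point, 7-fold dilutions, often from about 10 nM.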

Assay [2] deals with T2, human amylin receptor (hAMYR3) (Homo sapiens, UniProt O60896+P30988).
T2 construct: host or cells: BHK (Baby Hamster Kidney), Hollex-1 cell line further transfected with RAMP3
T2 sequence (O60896 24-148, one chain of several): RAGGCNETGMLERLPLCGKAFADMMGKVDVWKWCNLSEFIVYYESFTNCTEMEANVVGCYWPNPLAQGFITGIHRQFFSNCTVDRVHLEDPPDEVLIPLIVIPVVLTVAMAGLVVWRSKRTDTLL
Briefly: Human amylin receptor (hAMYR3) in vitro potency assay, CRE-luciferase reporter in BHK cells. In kind it is cell-based. The note with it: BHK hAMYR3/CRE-Luc cells, 3 hours incubation, assay buffer with 1% ovalbumin. The gist of the method: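 Luminescence from a CRE-driven luciferase reporter reflects cAMP-mediated receptor activation. Peptides were serially diluted (7 concentrations, 7-fold steps, typically starting near 10 nM) in buffer with 1% ovalbumin and applied for 3 h at 37 °C to BHK cells co-expressing calcitonin receptor (a) and RAMP3.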
On the technique in general: A reporter such as luciferase makes a cellular process visible.

SMILES strings stand for the structures. Starred links: 1 amine or outer side, 2 acyl side, 3 side chain; linkers in the order of their positions; H or OH if unused. Residues, ends and D or L forms follow the SMILES beside them. *: point of attachment. C18 diacid = O=C(O)CCCCCCCCCCCCCCCCC(=O)*; γGlu = O=C(O)[C@H](CCC(=O)[*:2])N[*:1]

What is called EC50 is the concentration at which the effect is half-maximal. On to `CC[C@H](C)[C@H](NC(=O)[C@H](C)NC(=O)CNC(=O)[C@H](Cc1ccccc1)NC(=O)[C@@H]1CCCN1C(=O)[C@H](CCC(=O)O)NC(=O)[C@H](CO)NC(=O)[C@H](CO)NC(=O)[C@H](Cc1c[nH]cn1)NC(=O)[C@H](Cc1c[nH]cn1)NC(=O)[C@H](CC(C)C)NC(=O)[C@H](Cc1ccccc1)NC(=O)[C@H](CCC(=O)O)NC(=O)[C@H](C)NC(=O)[C@H](CC(C)C)NC(=O)[C@H](CCCNC(=N)N)NC(=O)[C@H](CCC(N)=O)NC(=O)[C@@H](NC(=O)[C@H](CCC(N)=O)NC(=O)[C@H](C)NC(=O)[C@@H](NC(=O)[C@H](CO)NC(=O)[C@H](CC(C)C)NC(=O)[C@H](Cc1c[nH]cn1)NC(=O)[C@H](CO)NC(=O)[C@H](C)NC(=O)CC[C@H](NC(=O)CCCCCCCCCCCCCCCCC(=O)O)C(=O)O)[C@@H](C)O)[C@@H](C)O)C(=O)N1CCC[C@H]1C(=O)N[C@@H](CO)C(=O)N[C@@H](CO)C(=O)N[C@H](C(=O)N[C@@H](CCC(=O)O)C(=O)N[C@H](C(=O)NCC(=O)N1CCC[C@H]1C(=O)N[C@@H](CCC(=O)O)C(=O)N[C@H](C(=O)N1CCC[C@H]1C(N)=O)[C@@H](C)O)C(C)C)[C@@H](C)O` [Compound 27, N^1-[(4S)-4-carboxy-4-(17-carboxyheptadecanoylamino)butanoyl]-[Ala1,Ser2,His3,Leu4,Ser5,Ala7,Gln8,Glu14,His17,Glu21,Pro22,Pro27,Glu31,Pro34,Glu35,Pro37]-human amylin] ({C18 diacid-γGlu}-ASHLSTAQTQRLAEFLHHSSEPFGAIPSSTEVGPETP-NH2), for which the EC50 in assay [1] was 1.78 pM; in assay [2], 2.68 pM.
For `CC[C@H](C)[C@H](NC(=O)[C@@H]1CCCN1C(=O)CNC(=O)[C@H](Cc1ccccc1)NC(=O)[C@H](Cc1c[nH]cn1)NC(=O)[C@H](Cc1c[nH]cn1)NC(=O)[C@H](CC(C)C)NC(=O)[C@H](Cc1ccccc1)NC(=O)[C@H](CCC(=O)O)NC(=O)[C@H](C)NC(=O)[C@H](CC(C)C)NC(=O)[C@H](CCCNC(=N)N)NC(=O)[C@H](CCC(N)=O)NC(=O)[C@@H](NC(=O)[C@H](CCC(N)=O)NC(=O)[C@H](C)NC(=O)[C@@H](NC(=O)[C@H](CO)NC(=O)[C@H](CC(C)C)NC(=O)[C@H](Cc1c[nH]cn1)NC(=O)[C@H](CO)NC(=O)[C@H](C)NC(=O)CC[C@H](NC(=O)CCCCCCCCCCCCCCCCC(=O)O)C(=O)O)[C@@H](C)O)[C@@H](C)O)C(=O)N[C@@H](CC(C)C)C(=O)N1CCC[C@H]1C(=O)N1CCC[C@H]1C(=O)N[C@H](C(=O)N[C@@H](CC(=O)O)C(=O)N[C@H](C(=O)NCC(=O)N[C@@H](CO)C(=O)N[C@@H](CCC(=O)O)C(=O)N[C@H](C(=O)N1CCC[C@H]1C(N)=O)[C@@H](C)O)C(C)C)[C@@H](C)O` [Compound 28, N^1-[(4S)-4-carboxy-4-(17-carboxyheptadecanoylamino)butanoyl]-[Ala1,Ser2,His3,Leu4,Ser5,Ala7,Gln8,Glu14,His17,Pro25,Pro28,Pro29,Asp31,Glu35,Pro37],des-(19-22)-human amylin] ({C18 diacid-γGlu}-ASHLSTAQTQRLAEFLHHFGPILPPTDVGSETP-NH2), in that order: 1.72 pM and 2.06 pM.
For `CC[C@H](C)[C@H](NC(=O)[C@@H]1CCCN1C(=O)CNC(=O)[C@H](Cc1ccccc1)NC(=O)[C@H](Cc1c[nH]cn1)NC(=O)[C@H](Cc1c[nH]cn1)NC(=O)[C@H](CC(C)C)NC(=O)[C@H](Cc1ccccc1)NC(=O)[C@H](CCC(=O)O)NC(=O)[C@H](C)NC(=O)[C@H](CC(C)C)NC(=O)[C@H](CCCNC(=N)N)NC(=O)[C@H](CCC(N)=O)NC(=O)[C@@H](NC(=O)[C@H](CCC(N)=O)NC(=O)[C@H](C)NC(=O)[C@@H](NC(=O)[C@H](CO)NC(=O)[C@H](CC(C)C)NC(=O)[C@H](CCC(=O)O)NC(=O)[C@H](CO)NC(=O)[C@H](C)NC(=O)CC[C@H](NC(=O)CCCCCCCCCCCCCCCCC(=O)O)C(=O)O)[C@@H](C)O)[C@@H](C)O)C(=O)N[C@@H](CC(C)C)C(=O)N1CCC[C@H]1C(=O)N1CCC[C@H]1C(=O)N[C@H](C(=O)N[C@@H](CC(=O)O)C(=O)N[C@H](C(=O)NCC(=O)N[C@@H](CO)C(=O)N[C@@H](CCC(=O)O)C(=O)N[C@H](C(=O)N1CCC[C@H]1C(N)=O)[C@@H](C)O)C(C)C)[C@@H](C)O` [Compound 29, N^1-[(4S)-4-carboxy-4-(17-carboxyheptadecanoylamino)butanoyl]-[Ala1,Ser2,Glu3,Leu4,Ser5,Ala7,Gln8,Glu14,His17,Pro25,Pro28,Pro29,Asp31,Glu35,Pro37],des-(19-22)-human amylin] ({C18 diacid-γGlu}-ASELSTAQTQRLAEFLHHFGPILPPTDVGSETP-NH2) the same measures were 3.08 pM and 5.2 pM.
For `CC[C@H](C)[C@H](NC(=O)[C@@H]1CCCN1C(=O)CNC(=O)[C@H](Cc1ccccc1)NC(=O)[C@H](Cc1c[nH]cn1)NC(=O)[C@H](Cc1c[nH]cn1)NC(=O)[C@H](CC(C)C)NC(=O)[C@H](Cc1ccccc1)NC(=O)[C@H](CCC(=O)O)NC(=O)[C@H](C)NC(=O)[C@H](CC(C)C)NC(=O)[C@H](CCCNC(=N)N)NC(=O)[C@H](CCC(N)=O)NC(=O)[C@@H](NC(=O)[C@H](CCC(N)=O)NC(=O)[C@H](C)NC(=O)[C@@H](NC(=O)[C@H](CO)NC(=O)[C@H](CC(C)C)NC(=O)[C@H](CO)NC(=O)CNC(=O)[C@H](C)NC(=O)CC[C@H](NC(=O)CC[C@H](NC(=O)CCCCCCCCCCCCCCCCC(=O)O)C(=O)O)C(=O)O)[C@@H](C)O)[C@@H](C)O)C(=O)N[C@@H](CC(C)C)C(=O)N1CCC[C@H]1C(=O)N1CCC[C@H]1C(=O)N[C@H](C(=O)N[C@@H](CC(=O)O)C(=O)N[C@H](C(=O)NCC(=O)N[C@@H](CO)C(=O)N[C@@H](CCC(=O)O)C(=O)N[C@H](C(=O)N1CCC[C@H]1C(N)=O)[C@@H](C)O)C(C)C)[C@@H](C)O` [Compound 30, N^1-[(4S)-4-carboxy-4-[[(4S)-4-carboxy-4-(17-carboxyheptadecanoylamino)butanoyl]amino]butanoyl]-[Ala1,Gly2,Ser3,Leu4,Ser5,Ala7,Gln8,Glu14,His17,Pro25,Pro28,Pro29,Asp31,Glu35,Pro37],des-(19-22)-human amylin] ({C18 diacid-γGlu-γGlu}-AGSLSTAQTQRLAEFLHHFGPILPPTDVGSETP-NH2), in that order: 2.07 pM and 2.37 pM.
As for `CC[C@H](C)[C@H](NC(=O)[C@@H]1CCCN1C(=O)CNC(=O)[C@H](Cc1ccccc1)NC(=O)[C@H](Cc1c[nH]cn1)NC(=O)[C@H](Cc1c[nH]cn1)NC(=O)[C@H](CC(C)C)NC(=O)[C@H](Cc1ccccc1)NC(=O)[C@H](CCC(=O)O)NC(=O)[C@H](C)NC(=O)[C@H](CC(C)C)NC(=O)[C@H](CCCNC(=N)N)NC(=O)[C@H](CCC(N)=O)NC(=O)[C@@H](NC(=O)[C@H](CCC(N)=O)NC(=O)[C@H](C)NC(=O)[C@@H](NC(=O)[C@H](CO)NC(=O)[C@H](CC(C)C)NC(=O)[C@H](Cc1c[nH]cn1)NC(=O)[C@H](CO)NC(=O)[C@H](C)NC(=O)CC[C@H](NC(=O)CC[C@H](NC(=O)CCCCCCCCCCCCCCCCC(=O)O)C(=O)O)C(=O)O)[C@@H](C)O)[C@@H](C)O)C(=O)N[C@@H](CC(C)C)C(=O)N1CCC[C@H]1C(=O)N1CCC[C@H]1C(=O)N[C@H](C(=O)N[C@@H](CC(=O)O)C(=O)N[C@H](C(=O)NCC(=O)N[C@@H](CO)C(=O)N[C@@H](CCC(=O)O)C(=O)N[C@H](C(=O)N1CCC[C@H]1C(N)=O)[C@@H](C)O)C(C)C)[C@@H](C)O` [Compound 31, N^1-[(4S)-4-carboxy-4-[[(4S)-4-carboxy-4-(17-carboxyheptadecanoylamino)butanoyl]amino]butanoyl]-[Ala1,Ser2,His3,Leu4,Ser5,Ala7,Gln8,Glu14,His17,Pro25,Pro28,Pro29,Asp31,Glu35,Pro37],des-(19-22)-human amylin] ({C18 diacid-γGlu-γGlu}-ASHLSTAQTQRLAEFLHHFGPILPPTDVGSETP-NH2), the EC50 is 2.13 pM in assay [1] and 2.03 pM in assay [2].

The values above are taken from patent US12116388B2, “Amylin receptor agonists” (Novo Nordisk A/S, priority 2022, dated 2024).
